Experimental data reported in ChEMBL document CHEMBL4177649, “On-site reaction for PPARγ modification using a specific bifunctional ligand” (Bioorg Med Chem, 2017).
Calls of active or inactive are those of the source. The calls are words filed in the database; no cut-off is given here.

Key:
[1] = biological target: T1, Peroxisome proliferator-activated receptor gamma (Homo sapiens) (UniProt P37231); experiment: Binding affinity to Gal4-fused PPARgamma LBD (unknown origin) expressed in Escherichia coli DH5alpha cell lysates at 4 equiv in presence of ADIBO-fluorescein by Coomassie Brilliant Blue staining method
T1 sequence (whole entry): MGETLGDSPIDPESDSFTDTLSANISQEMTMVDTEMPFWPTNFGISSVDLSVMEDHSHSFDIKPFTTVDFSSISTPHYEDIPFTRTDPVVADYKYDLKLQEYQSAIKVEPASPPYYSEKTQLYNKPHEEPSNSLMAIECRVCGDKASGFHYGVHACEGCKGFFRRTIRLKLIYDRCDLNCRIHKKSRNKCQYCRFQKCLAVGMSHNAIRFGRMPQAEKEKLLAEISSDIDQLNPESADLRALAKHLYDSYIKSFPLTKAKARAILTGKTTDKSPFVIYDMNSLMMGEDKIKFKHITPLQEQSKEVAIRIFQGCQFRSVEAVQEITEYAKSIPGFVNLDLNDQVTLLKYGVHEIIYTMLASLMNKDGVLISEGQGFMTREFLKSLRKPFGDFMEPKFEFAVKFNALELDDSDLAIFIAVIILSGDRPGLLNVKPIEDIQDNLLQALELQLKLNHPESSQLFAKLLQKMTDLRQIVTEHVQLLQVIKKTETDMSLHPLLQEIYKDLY

[2] = biological target: T1, Peroxisome proliferator-activated receptor gamma (Homo sapiens); experiment: Transactivation at human Gal4-fused PPARgamma LBD expressed in African green monkey COS7 cells by dual luciferase assay; assay type: cell-based
[3] = biological target: T1, Peroxisome proliferator-activated receptor gamma (Homo sapiens); experiment: Binding affinity to Gal4-fused human PPARgamma LBD (204 to 477 residues) assessed as covalent modification at 100 uM after 24 hrs in presence of methyl N-((3E,5E)-16-azido-2-oxohexadeca-3,5-dien-1-yl)-N-tosylglycinate by ESI-mass analysis
[4] = biological target: T1, Peroxisome proliferator-activated receptor gamma (Homo sapiens); experiment: Binding affinity to Gal4-fused human PPARgamma LBD (204 to 477 residues) assessed as covalent modification at 100 uM after 24 hrs in presence of methyl N-((3E,5E)-2-oxohexadeca-3,5-dien-1-yl)-N-tosylglycinate by ESI-mass analysis
[5] = biological target: T1, Peroxisome proliferator-activated receptor gamma (Homo sapiens); experiment: Binding affinity to Gal4-fused human PPARgamma LBD (204 to 477 residues) assessed as covalent modification at 100 uM after 24 hrs by ESI-mass analysis
[6] = biological target: T1, Peroxisome proliferator-activated receptor gamma (Homo sapiens); experiment: Binding affinity to Gal4-fused human PPARgamma LBD (204 to 477 residues) assessed as labeling efficiency at 100 uM after 12 hrs by ESI-mass analysis
[7] = biological target: T2, Peroxisome proliferator-activated receptor gamma (Mus musculus) (UniProt P37238); experiment: Binding affinity to Gal4-fused PPARgamma LBD in mouse 3T3-L1 cells assessed in presence of ADIBO-fluorescein; assay type: cell-based
T2 sequence (whole entry): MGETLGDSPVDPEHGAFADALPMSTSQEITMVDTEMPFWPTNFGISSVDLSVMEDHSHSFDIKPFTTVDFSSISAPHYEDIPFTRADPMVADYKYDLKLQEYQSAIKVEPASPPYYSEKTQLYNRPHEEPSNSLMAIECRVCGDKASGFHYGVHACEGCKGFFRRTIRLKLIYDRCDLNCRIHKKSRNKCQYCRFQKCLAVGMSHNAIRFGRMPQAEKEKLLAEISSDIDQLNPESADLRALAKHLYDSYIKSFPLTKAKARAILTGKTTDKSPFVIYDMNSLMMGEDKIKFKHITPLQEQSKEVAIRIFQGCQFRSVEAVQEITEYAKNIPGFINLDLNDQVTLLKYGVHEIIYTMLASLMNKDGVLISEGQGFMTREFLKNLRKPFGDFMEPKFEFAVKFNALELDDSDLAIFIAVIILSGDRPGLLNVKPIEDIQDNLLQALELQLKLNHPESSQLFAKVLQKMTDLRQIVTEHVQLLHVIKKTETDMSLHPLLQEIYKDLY

[8] = biological target: T1, Peroxisome proliferator-activated receptor gamma (Homo sapiens); experiment: Binding affinity to human Gal4-fused PPARgamma LBD expressed in African green monkey COS7 cells assessed in presence of ADIBO-fluorescein; assay type: cell-based
[9] = biological target: T1, Peroxisome proliferator-activated receptor gamma (Homo sapiens); experiment: Binding affinity to Gal4-fused PPARgamma LBD (unknown origin) expressed in Escherichia coli DH5alpha cell lysates at 4 equiv in presence of ADIBO-fluorescein by SDS-PAGE analysis
[10] = biological target: T1, Peroxisome proliferator-activated receptor gamma (Homo sapiens); experiment: Binding affinity to Gal4-fused PPARgamma LBD (unknown origin) expressed in Escherichia coli DH5alpha cell lysates at 4 equiv in presence of ADIBO-fluorescein by silver staining method
[11] = biological target: T1, Peroxisome proliferator-activated receptor gamma (Homo sapiens); experiment: Binding affinity to Gal4-fused PPARgamma LBD (unknown origin) expressed in Escherichia coli DH5alpha cell lysates in presence of ADIBO-fluorescein by SDS-PAGE analysis

Question: For `O=C(O)c1cc(NC(=S)NCCCCCC(=O)N2Cc3ccccc3C#Cc3ccccc32)ccc1-c1c2ccc(=O)cc-2oc2cc(O)ccc12`, which Activity [1] is on record?
Answer: Its Activity is “Active”.

Question: For `CCCCCCCCCC/C=C/C=C/C(=O)CN(CC(=O)OC)S(=O)(=O)c1ccc(C)cc1`, which Activity [2] is on record?
Answer: The Activity was “Dose-dependent effect”.

Question: For `O=C(CCCCCNC(=O)C(F)(F)F)N1Cc2ccccc2C#Cc2ccccc21`, which Activity [3] is on record?
Answer: Its Activity is “Active”.

Question: And the Activity [4]?
Answer: Its Activity is “inactive”.

Question: `COC(=O)CN(CC(=O)/C=C/C=C/CCCCCCCCCCN=[N+]=[N-])S(=O)(=O)c1ccc(C)cc1` was tested. Which Activity [2] did it give?
Answer: The Activity was “Dose-dependent effect”.

Question: What about the Activity [5] of the same compound?
Answer: The Activity was “Active”.

Question: What about the Activity [6] of the same compound?
Answer: Its Activity is “Active”.

Question: What about the Activity [7] of the same compound?
Answer: The Activity was “inactive”.

Question: What about the Activity [8] of the same compound?
Answer: The Activity was “inactive”.

Question: What about the Activity [9] of the same compound?
Answer: The Activity was “Active”.

Question: And the Activity [10]?
Answer: The Activity was “Active”.

Question: And the Activity [1]?
Answer: The Activity was “Active”.

Question: What about the Activity [11] of the same compound?
Answer: The Activity was “Dose-dependent effect”.

Question: Which Activity [6] does the source give for `Cc1ccc(S(=O)(=O)N(CC(=O)O)CC(=O)/C=C/C=C/CCCCCCCCCCn2nnc3c2-c2ccccc2CN(C(=O)CCCCCNC(=O)C(F)(F)F)c2ccccc2-3)cc1` here?
Answer: Its Activity is “Active”.
